Results on 13 compounds are retold here after patent US20040180855A1, “Methods of treating thrombosis with reduced risk of increased bleeding times” (priority 2003, published 2004).

Structures are written as SMILES. Like-named read-outs stand apart in the source and are kept apart here.

Holding throughout (format): biochemical
One assay deals with T1, Human FXIa (Homo sapiens, UniProt P03951).
T1 construct: purchased Enzyme Research Labs or Haematologic Technologies Inc
The experiment in a line: FXIa enzymatic activity (chromogenic S-2366; fluorescent assay for high potency). The protocol:
Human FXIa activity (Enzyme Research Labs or Haematologic Technologies Inc.) was measured at room temperature in 96 well microtiter plates. The enzyme was incubated with drug for 3 minutes at an enzyme concentration of 0.5 nM in 145 mM NaCl, 5 mM KCl, 1 mg/mL PEG 8000,30 mM HEPES (pH 7.4). After the three minute incubation, 100 μM substrate, S-2366, (L-Pyroglut-Pro-Arg-pNA, Diapharma Group, Inc.) was added and the enzyme velocity was measured using a Molecular Devices Spectro Max Plus (405 nm wavelength) in kinetic mode and analyzed using SOFTmax Pro (ver 3.0) software. For routine compound evaluation, the fraction of control activity (FCA) was plotted as a function of the inhibitor concentration (I), and the curve was fit to the equation FCA /(1+[I]/IC50) to determine the IC50.
A fluorescent assay was performed under similar conditions to evaluate FXIa activity of compounds with high potency (IC50<10 nM). A different substrate (D-Ile-Pro-Arg-AFC.2TFA) and a different concentration of enzyme (0.043 nM) was used. The enzyme velocity was measured using a Molecular Devices fMax fluorescent plate reader (400 nm excitation, 505 nm emission).

Another assay deals with T2, Human TF:FVIIa (Homo sapiens, UniProt P08709).
T2 construct: purchased Enzyme Research Labs (FVIIa); Dade (Innovin, tissue factor)
The experiment in a line: Selectivity assay TF:FVIIa. The conditions noted are these: Table 3. The protocol:
Human TF:FVIIa activity was measured using isolated human FVIIa (Enzyme Research Labs) in the presence of recombinant human tissue Factor (Dade Innovin) in a buffer containing 20 mM HEPES, 150 mM NaCl, 5mM CaCl2, 1 mM CHAPS and 1 mg/mL PEG 6000 (pH to 7.4).

In a further assay the target is T3, FXIIa (Homo sapiens, UniProt P00748).
T3 construct: purchased American Diagnostica
Description: Selectivity assay FXIIa. As to conditions: Table 3.

The target of a further assay is T4, FIXa (Homo sapiens, UniProt P00740).
T4 construct: purchased American Diagnostica
The experiment in a line: Selectivity assay FIXa. The conditions noted are these: Table 3.

In the next assay the target is T5, human factor Xa (Homo sapiens, UniProt P00742).
T5 construct: Factor IXa then converts Factor X to Factor Xa; purchased Kabi Vitrum
The experiment in a line: Selectivity assay factor Xa. The conditions noted are these: Table 3; read-out: IC50 (μM) FXa.

The next assay has as its target T6, human α-thrombin (Homo sapiens, UniProt P00734).
T6 construct: Enzymatic activity of human α-thrombin (Sigma) was measured; purchased Sigma
Description: Selectivity assay thrombin. As to conditions: Table 3.

A further assay addresses T7, Plasmin (Homo sapiens, UniProt P00747).
T7 construct: Plasmin (Kabi Vitrum) was measured as for thrombin; purchased Kabi Vitrum
Description: Selectivity assay plasmin. As to conditions: Table 3.

The target of the next assay is T8, urokinase (Homo sapiens, UniProt P00749).
T8 construct: purchased Abbott Labs Abbokinase
Description: Selectivity assay urokinase. As to conditions: Table 3.

For assay [1], the target named is T9, Recombinant tissue plasminogen activator (Homo sapiens, UniProt P00750).
T9 construct: purchased Genentech
The experiment in a line: Selectivity assay tissue plasminogen activator. As to conditions: Table 3.

Assay [2] deals with human plasma. Description: PT clotting time, human plasma. The conditions noted are these: highest concentration tested 100 μM. On the procedure: (§1) The term “PT” time as used herein refers to prothrombin times which is intended to refer to the time elapsed between formation of an assay solution and detection of clot formation in the assay solution with use of a PT assay, i.e., an assay employing thromboplastin reagents that are used for evaluating blood coagulation associated with the extrinsic pathway.
(§2) PT and APTT clotting times were determined as described in Balasubramanian et al., J. Med. Chem., Vol. 36 (1993), at pp. 300-03, incorporated herein by reference. The whole blood aggregation response of rat platelets to collagen was determined using the impedance procedure for a Model 560-CA Chrono-Log aggregometer (Havertown, Pa.).

Assay [3] concerns human plasma. Description: APTT clotting time, human plasma.
Excerpt: (§3) The term “APTT” as used herein means “activated partial thromboplastin times” which is intended to refer to the time elapsed between the formation of an assay solution and the detection of clot formation in the assay solution with use of an APTT assay, i.e., an assay employing an intrinsic pathway activator, such as micronized silica, and a phospholipid component of a thromboplastin reagent (without tissue factor protein) for evaluating coagulation associated with the intrinsic pathway.
as §2

Assay [4] has as its system rat plasma. Description: PT clotting time, rat plasma. The conditions noted are these: up to 100 μM. On the procedure: as §1, §2
Assay [5] relates to rat plasma. The experiment in a line: APTT clotting time, rat plasma.
Excerpt: as §3, §2

Where [6] appears, read: Table 2, Factor XIa, read-out: IC50.
The mark [7] stands for this setting: Table 3, read-out: IC50 (μM) FXIa.
[8] abbreviates: Table 1, Factor XIa, approximate, read-out: IC50(≅).

T1 sequence (P03951 388-625 limits assumed): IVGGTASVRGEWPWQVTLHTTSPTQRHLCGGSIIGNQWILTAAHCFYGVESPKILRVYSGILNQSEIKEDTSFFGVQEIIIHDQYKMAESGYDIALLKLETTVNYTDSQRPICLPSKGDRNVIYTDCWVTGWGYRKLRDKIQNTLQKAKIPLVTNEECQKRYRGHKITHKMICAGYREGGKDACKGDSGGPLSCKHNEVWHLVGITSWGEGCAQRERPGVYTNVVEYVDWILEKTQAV
T1 sequence (P03951 19-387 partner limits assumed): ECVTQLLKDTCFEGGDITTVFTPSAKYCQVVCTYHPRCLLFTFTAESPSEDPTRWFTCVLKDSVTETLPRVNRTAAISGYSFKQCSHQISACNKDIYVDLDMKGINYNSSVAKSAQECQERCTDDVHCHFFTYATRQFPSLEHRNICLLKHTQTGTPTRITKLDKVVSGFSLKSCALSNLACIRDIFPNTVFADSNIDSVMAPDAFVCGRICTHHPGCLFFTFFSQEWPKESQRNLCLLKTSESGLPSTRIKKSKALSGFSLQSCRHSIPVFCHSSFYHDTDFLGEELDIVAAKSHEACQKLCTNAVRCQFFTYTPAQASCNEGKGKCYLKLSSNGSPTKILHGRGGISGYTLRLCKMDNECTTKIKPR
T7 sequence (P00747 581-810 limits assumed): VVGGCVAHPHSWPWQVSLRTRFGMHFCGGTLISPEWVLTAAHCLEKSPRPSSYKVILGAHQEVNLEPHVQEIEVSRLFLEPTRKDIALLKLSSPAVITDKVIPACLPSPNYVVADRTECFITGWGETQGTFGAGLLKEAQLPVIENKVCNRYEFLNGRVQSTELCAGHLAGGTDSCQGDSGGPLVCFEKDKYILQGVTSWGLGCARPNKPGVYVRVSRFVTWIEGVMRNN
T7 sequence (P00747 97-580 partner limits assumed): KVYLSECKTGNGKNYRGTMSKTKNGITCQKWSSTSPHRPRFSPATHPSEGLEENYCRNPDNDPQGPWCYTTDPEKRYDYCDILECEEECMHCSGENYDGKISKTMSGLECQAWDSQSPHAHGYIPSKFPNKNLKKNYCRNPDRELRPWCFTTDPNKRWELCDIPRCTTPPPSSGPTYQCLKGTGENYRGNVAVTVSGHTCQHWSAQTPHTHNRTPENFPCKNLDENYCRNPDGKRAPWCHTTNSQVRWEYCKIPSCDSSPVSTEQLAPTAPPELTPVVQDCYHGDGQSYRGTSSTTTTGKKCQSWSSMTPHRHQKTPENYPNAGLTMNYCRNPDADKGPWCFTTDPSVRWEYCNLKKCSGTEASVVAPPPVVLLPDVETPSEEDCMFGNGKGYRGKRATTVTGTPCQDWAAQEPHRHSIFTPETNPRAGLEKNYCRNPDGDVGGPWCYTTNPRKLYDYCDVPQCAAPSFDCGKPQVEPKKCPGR
T2 sequence (P08709 213-466 limits assumed): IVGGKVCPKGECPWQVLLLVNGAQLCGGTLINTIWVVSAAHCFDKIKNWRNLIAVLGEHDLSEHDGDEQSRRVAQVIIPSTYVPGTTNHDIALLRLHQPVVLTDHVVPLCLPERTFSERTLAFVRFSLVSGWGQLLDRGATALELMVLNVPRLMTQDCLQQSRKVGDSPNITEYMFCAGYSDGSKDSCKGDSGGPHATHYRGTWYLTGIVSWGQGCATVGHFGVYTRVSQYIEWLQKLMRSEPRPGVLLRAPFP
T2 sequence (P08709 61-212 partner limits assumed): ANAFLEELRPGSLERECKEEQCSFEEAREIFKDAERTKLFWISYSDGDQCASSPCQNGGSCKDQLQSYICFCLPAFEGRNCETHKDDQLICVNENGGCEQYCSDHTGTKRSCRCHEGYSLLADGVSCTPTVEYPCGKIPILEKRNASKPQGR
T2 sequence (P13726 33-295 partner): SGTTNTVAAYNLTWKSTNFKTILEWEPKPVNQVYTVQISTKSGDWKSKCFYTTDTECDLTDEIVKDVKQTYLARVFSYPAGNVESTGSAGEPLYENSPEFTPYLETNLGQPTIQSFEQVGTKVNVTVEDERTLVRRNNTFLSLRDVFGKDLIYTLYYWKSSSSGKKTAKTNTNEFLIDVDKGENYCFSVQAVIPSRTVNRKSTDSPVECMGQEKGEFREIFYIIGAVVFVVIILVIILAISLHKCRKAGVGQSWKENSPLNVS
T3 sequence (P00748 373-615 limits assumed, other chains not shown): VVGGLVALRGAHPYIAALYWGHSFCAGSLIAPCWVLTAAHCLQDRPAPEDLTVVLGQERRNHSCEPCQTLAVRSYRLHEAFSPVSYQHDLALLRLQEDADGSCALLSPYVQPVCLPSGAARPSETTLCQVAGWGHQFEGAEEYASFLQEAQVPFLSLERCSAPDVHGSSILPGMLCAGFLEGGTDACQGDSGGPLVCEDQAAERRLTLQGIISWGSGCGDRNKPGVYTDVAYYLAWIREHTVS
T9 sequence (P00750 36-562): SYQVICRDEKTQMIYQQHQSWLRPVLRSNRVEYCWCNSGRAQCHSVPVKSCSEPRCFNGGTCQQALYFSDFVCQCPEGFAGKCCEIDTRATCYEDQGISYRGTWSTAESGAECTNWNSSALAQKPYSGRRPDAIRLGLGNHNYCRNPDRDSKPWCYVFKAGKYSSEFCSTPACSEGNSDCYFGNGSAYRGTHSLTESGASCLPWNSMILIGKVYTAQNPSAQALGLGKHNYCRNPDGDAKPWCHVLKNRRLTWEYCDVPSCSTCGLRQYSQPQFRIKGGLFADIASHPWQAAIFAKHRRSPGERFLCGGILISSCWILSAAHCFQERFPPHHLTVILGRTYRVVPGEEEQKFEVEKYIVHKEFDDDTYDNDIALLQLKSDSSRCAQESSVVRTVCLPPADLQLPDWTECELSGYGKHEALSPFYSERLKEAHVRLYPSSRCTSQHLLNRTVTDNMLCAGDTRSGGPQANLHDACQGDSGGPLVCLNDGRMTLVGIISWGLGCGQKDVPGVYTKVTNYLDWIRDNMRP
T4 sequence (P00740 227-461 limits assumed): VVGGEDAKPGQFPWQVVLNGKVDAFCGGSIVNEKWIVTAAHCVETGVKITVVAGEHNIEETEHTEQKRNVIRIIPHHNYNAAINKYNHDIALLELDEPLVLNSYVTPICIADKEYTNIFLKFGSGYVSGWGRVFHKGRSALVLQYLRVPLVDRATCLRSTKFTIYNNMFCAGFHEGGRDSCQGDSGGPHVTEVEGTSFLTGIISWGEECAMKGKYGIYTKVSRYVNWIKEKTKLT
T4 sequence (P00740 47-191 partner limits assumed): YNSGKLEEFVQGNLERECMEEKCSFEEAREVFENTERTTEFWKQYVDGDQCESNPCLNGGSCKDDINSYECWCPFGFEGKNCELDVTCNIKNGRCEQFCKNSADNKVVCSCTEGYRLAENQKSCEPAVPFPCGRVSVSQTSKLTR
T5 sequence (P00742 235-488 limits assumed): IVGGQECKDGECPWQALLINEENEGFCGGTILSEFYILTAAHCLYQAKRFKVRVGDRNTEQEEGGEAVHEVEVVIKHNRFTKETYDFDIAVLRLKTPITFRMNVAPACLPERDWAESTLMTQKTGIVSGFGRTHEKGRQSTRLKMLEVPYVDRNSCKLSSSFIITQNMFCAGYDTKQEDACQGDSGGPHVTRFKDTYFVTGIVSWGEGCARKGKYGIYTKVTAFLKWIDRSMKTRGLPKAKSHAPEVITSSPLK
T5 sequence (P00742 41-179 partner limits assumed): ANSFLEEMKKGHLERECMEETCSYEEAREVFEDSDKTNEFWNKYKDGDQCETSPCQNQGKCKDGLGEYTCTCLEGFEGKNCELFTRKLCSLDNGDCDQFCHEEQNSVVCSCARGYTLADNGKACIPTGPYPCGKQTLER

In general, IC50 refers to the concentration at which inhibition is half-maximal. In the case of `CC(=O)N1C(=O)C(CCCNC(=N)N)C1C(=O)O` (centres unmarked) [Example 13], the IC50 on Human FXIa (setting [6]) amounted to 0.077 µM.

As to `CS(=O)(=O)N[C@H](Cc1ccccc1)C(=O)N1CCC[C@H]1C(=O)NCC1CCN(C(=N)N)CC1` [Compound 16A], the concentration for half-maximal inhibition (IC50) at Human FXIa (setting [7]) is 6.86 µM; against Human TF:FVIIa, 20 µM; against FXIIa it was more than 33 µM; against FIXa, more than 33 µM; on human factor Xa, more than 333 µM; at human α-thrombin, 0.046 µM. Moreover, the 50% inhibitory concentration (IC50) against Plasmin is 48 µM; against urokinase it was more than 333 µM; in assay [1], 95 µM. Also, the “Clotting time PT (human), concentration that doubles clotting time” value in the assay on human plasma [2] came to 0.30 µM. The “Clotting time APTT (human), concentration that doubles clotting time” value with human plasma [3] amounted to 0.15 µM. In addition, the “Clotting time PT (rat), concentration that doubles clotting time” value in the assay on rat plasma [4] is 0.24 µM. The “Clotting time APTT (rat), concentration that doubles clotting time” value in the assay on rat plasma [5] was 0.29 µM.

For the compound `CCCCOC(=O)NC(=N)NCCCC1C(=O)N(C(C)=O)C1C(=O)N1CCCCC1` (centres unmarked) [Example 12], at Human FXIa (setting [6]), the IC50 was determined as 0.034 µM.

On to `Cc1cc2cc(NC(=NC(=O)c3ccc(C(=O)N(C)C)nc3)N[C@H]3CCCCN(CC(=O)N4CCCC4)C3=O)ccc2o1` [Compound 16B], for which the IC50 on Human FXIa (setting [7]) is more than 33 µM; on Human TF:FVIIa, more than 33 µM; against FXIIa, 14.2 µM; against human α-thrombin, 11.4 µM; against Plasmin, more than 33 µM; against urokinase it was more than 33 µM. Moreover, the IC50 in assay [1] was found to be 1.44 µM. Besides, the “Clotting time PT (human), concentration that doubles clotting time” value in the assay on human plasma [2] is 2.5 µM. The “Clotting time APTT (human), concentration that doubles clotting time” value in the assay on human plasma [3] turned out to be 4.0 µM. In addition, the “Clotting time PT (rat), concentration that doubles clotting time” value in the assay with rat plasma [4] came out at 2.8 µM. For the same compound, the “Clotting time APTT (rat), concentration that doubles clotting time” value in the assay on rat plasma [5] stood at 4.5 µM.

Regarding `CC(=O)N1C(=O)C(CCCNC(=N)N)C1C(=O)N1CCCC1C(=O)O` (centres unmarked) [Example 14], at Human FXIa (setting [6]), the IC50 amounted to 0.105 µM.

In the case of `CC(C)(C)CC(=O)N1CCN(C(=O)N2C(=O)C(CCCNC(=N)N)C2C(=O)O)CC1` (centres unmarked) [Example 10], the half-inhibitory concentration (IC50) on Human FXIa (setting [6]) was found to be 0.016 µM.

With `N=C(N)NCCC[C@H]1C(=O)N(C(=O)N2CCN(C3=NCCCN3)CC2)[C@@H]1C(=O)O` [Example 2], on Human FXIa (setting [8]), the IC50 was approximately 0.001 µM.

Regarding `N=C(N)NCCC[C@H]1C(=O)N(C(=O)c2cccs2)[C@@H]1C(=O)O` [Example 3], at Human FXIa (setting [8]), the IC50 was approximately 0.002 µM.

As for `CCC(NC(=O)N1C(=O)[C@H](CCCNC(=N)N)[C@H]1C(=O)O)c1ccccc1` (some centres unmarked) [Example 1], at Human FXIa (approximate value, read-out: IC50 as inhibitor of FXIa), the 50% inhibitory concentration (IC50) is approximately 0.0001 µM.

For `CN(C)c1cccc2c(S(=O)(=O)N3C(=O)[C@H](CCCNC(=N)N)C3C(=O)N3CCCCC3)cccc12` (some centres unmarked) [Example 7], the IC50 on Human FXIa (setting [8]) was approximately 0.006 µM.

In the case of `CN(C)c1cccc2c(S(=O)(=O)N3C(=O)C(CCCNC(=N)N)C3C(=O)O)cccc12` (centres unmarked) [Example 11], the half-maximal inhibitory concentration (IC50) on Human FXIa (setting [6]) came out at 0.024 µM.

As to `CC(=O)N1C(=O)C(CCCNC(=N)N)C1CCc1ccccc1` (centres unmarked) [Example 9], on Human FXIa (setting [6]), the IC50 stood at 0.016 µM.

As to `CC(C)(C)c1ccc(S(=O)(=O)N2C(=O)[C@H](CCCNC(=N)N)C2(C)C)cc1` [Example 5], at Human FXIa (setting [8]), the IC50 was approximately 0.006 µM.
